In ChEMBL document CHEMBL2094260, “Malaria Box Tuberculosis Screening Data”:
Values after ≈ are worked out from the molar mass of the structure shown.

Test system: Mycobacterium tuberculosis
Assay: MMV: Screen against Mtb, single point, non replicating, at 25uM
Assay type: functional
Details: not given

| SMILES | inhibition at 25 µM |
| --- | --- |
| CCN(CC)CCCNc1nc(-c2ccc(Cl)cc2)nc2ccccc12 | 17.1% |
| Cc1ccc2cc3c(N)c4c(C)ccc(C)c4nc3nc2c1 | 7.35% |
| Cc1cc(C)c2nc(N3CCC(C(=O)NCCCN4CCC(N5CCCCC5)CC4)CC3)sc2c1 | 15.2% |
| Cc1cc(Nc2ccc(OCc3ccccc3)cc2)nc2cc(O)ccc12 | 10% |
| O=C(Nc1ccc(Cl)c(Cl)c1)Nc1ccc(Cl)c(Cl)c1 | 99.8% |
| COCCNCC(O)Cn1c2ccc(Cl)cc2c2cc(Cl)ccc21 (stereo not given) | 26.7% |
| Clc1ccc2c(N3CCCC3)ccnc2c1 | 17.1% |
| CSc1ccccc1C(=O)Nc1nc(-c2ccccn2)cs1 | 66.8% |
| FC(F)(F)c1cccc(Nc2nc3ccccc3nc2Nc2cccc(C(F)(F)F)c2)c1 | 102% |
| CCCCCn1c(=N)n(CC(O)COc2cccc(C)c2)c2ccccc21 (stereo not given) | 8.77% |
| Cc1ccc2c(C)nc(Nc3nc(C)cc(-c4ccccc4)n3)nc2c1 | 24.2% |
| OCCNc1nc(Nc2ccc(Cl)c(Cl)c2)nc2ccccc12 | 84.5% |
| Cc1cc(Nc2cccc(F)c2)nc(NCc2ccccc2)n1 | 5.92% |
| O=C(Nc1ccc(F)c(Cl)c1)Nc1ccc(Cl)c(Cl)c1 | 100% |
| Cc1cc(N(C)C)nc(Nc2ccc(NC(=O)Nc3ccccc3)cc2)n1 | 3.62% |

Test system: Mycobacterium tuberculosis
Assay: MMV: CRC and MIC90 against Mtb (replicating)
Assay type: functional
Details: not given

| SMILES | MIC90 |
| --- | --- |
| CCN(CC)CCCNc1nc(-c2ccc(Cl)cc2)nc2ccccc12 | 24.7 µM (≈ 9.11 µg/mL) |
| Cc1ccc2cc3c(N)c4c(C)ccc(C)c4nc3nc2c1 | 6.06 µM (≈ 1.74 µg/mL) |
| Cc1cc(C)c2nc(N3CCC(C(=O)NCCCN4CCC(N5CCCCC5)CC4)CC3)sc2c1 | 60.8 µM (≈ 30.3 µg/mL) |
| Cc1cc(Nc2ccc(OCc3ccccc3)cc2)nc2cc(O)ccc12 | 19.9 µM (≈ 7.09 µg/mL) |
| O=C(Nc1ccc(Cl)c(Cl)c1)Nc1ccc(Cl)c(Cl)c1 | 3.89 µM (≈ 1.36 µg/mL) |
| COCCNCC(O)Cn1c2ccc(Cl)cc2c2cc(Cl)ccc21 (stereo not given) | 11.6 µM (≈ 4.26 µg/mL) |
| Clc1ccc2c(N3CCCC3)ccnc2c1 | > 100 µM |
| CSc1ccccc1C(=O)Nc1nc(-c2ccccn2)cs1 | 51.2 µM (≈ 16.8 µg/mL) |
| FC(F)(F)c1cccc(Nc2nc3ccccc3nc2Nc2cccc(C(F)(F)F)c2)c1 | 3.33 µM (≈ 1.49 µg/mL) |
| CCCCCn1c(=N)n(CC(O)COc2cccc(C)c2)c2ccccc21 (stereo not given) | 23 µM (≈ 8.45 µg/mL) |
| Cc1ccc2c(C)nc(Nc3nc(C)cc(-c4ccccc4)n3)nc2c1 | 18.6 µM (≈ 6.35 µg/mL) |
| OCCNc1nc(Nc2ccc(Cl)c(Cl)c2)nc2ccccc12 | 3.59 µM (≈ 1.25 µg/mL) |
| Cc1cc(Nc2cccc(F)c2)nc(NCc2ccccc2)n1 | 16.4 µM (≈ 5.06 µg/mL) |
| O=C(Nc1ccc(F)c(Cl)c1)Nc1ccc(Cl)c(Cl)c1 | 4.03 µM (≈ 1.34 µg/mL) |
| Cc1cc(N(C)C)nc(Nc2ccc(NC(=O)Nc3ccccc3)cc2)n1 | 19.3 µM (≈ 7 µg/mL) |

Test system: Mycobacterium tuberculosis
Assay: MMV: CRC and MIC90 against Mtb (non replicating)
Assay type: functional
Details: not given

| SMILES | MIC90 |
| --- | --- |
| CCN(CC)CCCNc1nc(-c2ccc(Cl)cc2)nc2ccccc12 | > 100 µM |
| Cc1ccc2cc3c(N)c4c(C)ccc(C)c4nc3nc2c1 | > 100 µM |
| Cc1cc(C)c2nc(N3CCC(C(=O)NCCCN4CCC(N5CCCCC5)CC4)CC3)sc2c1 | > 100 µM |
| Cc1cc(Nc2ccc(OCc3ccccc3)cc2)nc2cc(O)ccc12 | 50 µM (≈ 17.8 µg/mL) |
| O=C(Nc1ccc(Cl)c(Cl)c1)Nc1ccc(Cl)c(Cl)c1 | 10.3 µM (≈ 3.61 µg/mL) |
| COCCNCC(O)Cn1c2ccc(Cl)cc2c2cc(Cl)ccc21 (stereo not given) | 56.1 µM (≈ 20.6 µg/mL) |
| Clc1ccc2c(N3CCCC3)ccnc2c1 | > 100 µM |
| CSc1ccccc1C(=O)Nc1nc(-c2ccccn2)cs1 | 79 µM (≈ 25.9 µg/mL) |
| FC(F)(F)c1cccc(Nc2nc3ccccc3nc2Nc2cccc(C(F)(F)F)c2)c1 | 5.75 µM (≈ 2.58 µg/mL) |
| CCCCCn1c(=N)n(CC(O)COc2cccc(C)c2)c2ccccc21 (stereo not given) | > 100 µM |
| Cc1ccc2c(C)nc(Nc3nc(C)cc(-c4ccccc4)n3)nc2c1 | 57.9 µM (≈ 19.8 µg/mL) |
| OCCNc1nc(Nc2ccc(Cl)c(Cl)c2)nc2ccccc12 | 20.2 µM (≈ 7.05 µg/mL) |
| Cc1cc(Nc2cccc(F)c2)nc(NCc2ccccc2)n1 | > 100 µM |
| O=C(Nc1ccc(F)c(Cl)c1)Nc1ccc(Cl)c(Cl)c1 | 11 µM (≈ 3.67 µg/mL) |
| Cc1cc(N(C)C)nc(Nc2ccc(NC(=O)Nc3ccccc3)cc2)n1 | > 100 µM |

Test system: not listed separately
Assay: MMV: Cytotoxicity CRC and LD50 against HepG2
Assay type: toxicity, cell-based
Details: human, HepG2 cells; read-out: LD50 (the source's name)

| SMILES | CC50 |
| --- | --- |
| CCN(CC)CCCNc1nc(-c2ccc(Cl)cc2)nc2ccccc12 | 2.72 µM |
| Cc1ccc2cc3c(N)c4c(C)ccc(C)c4nc3nc2c1 | 2.84 µM |
| Cc1cc(C)c2nc(N3CCC(C(=O)NCCCN4CCC(N5CCCCC5)CC4)CC3)sc2c1 | 2.55 µM |
| Cc1cc(Nc2ccc(OCc3ccccc3)cc2)nc2cc(O)ccc12 | 8.16 µM |
| O=C(Nc1ccc(Cl)c(Cl)c1)Nc1ccc(Cl)c(Cl)c1 | 6.5 µM |
| COCCNCC(O)Cn1c2ccc(Cl)cc2c2cc(Cl)ccc21 (stereo not given) | 3.92 µM |
| Clc1ccc2c(N3CCCC3)ccnc2c1 | 34.9 µM |
| CSc1ccccc1C(=O)Nc1nc(-c2ccccn2)cs1 | 12.1 µM |
| FC(F)(F)c1cccc(Nc2nc3ccccc3nc2Nc2cccc(C(F)(F)F)c2)c1 | 1.59 µM |
| CCCCCn1c(=N)n(CC(O)COc2cccc(C)c2)c2ccccc21 (stereo not given) | 4.92 µM |
| Cc1ccc2c(C)nc(Nc3nc(C)cc(-c4ccccc4)n3)nc2c1 | > 100 µM |
| OCCNc1nc(Nc2ccc(Cl)c(Cl)c2)nc2ccccc12 | 7.18 µM |
| Cc1cc(Nc2cccc(F)c2)nc(NCc2ccccc2)n1 | 7.18 µM |
| O=C(Nc1ccc(F)c(Cl)c1)Nc1ccc(Cl)c(Cl)c1 | 4.33 µM |
| Cc1cc(N(C)C)nc(Nc2ccc(NC(=O)Nc3ccccc3)cc2)n1 | 11.2 µM |

Test system: Mycobacterium tuberculosis
Assay: MMV: Screen against Mtb, single point, replicating, at 25uM
Assay type: functional
Details: not given

| SMILES | inhibition at 25 µM |
| --- | --- |
| CCN(CC)CCCNc1nc(-c2ccc(Cl)cc2)nc2ccccc12 | 95.3% |
| Cc1ccc2cc3c(N)c4c(C)ccc(C)c4nc3nc2c1 | 101% |
| Cc1cc(C)c2nc(N3CCC(C(=O)NCCCN4CCC(N5CCCCC5)CC4)CC3)sc2c1 | 60.2% |
| Cc1cc(Nc2ccc(OCc3ccccc3)cc2)nc2cc(O)ccc12 | 99.8% |
| O=C(Nc1ccc(Cl)c(Cl)c1)Nc1ccc(Cl)c(Cl)c1 | 92.6% |
| COCCNCC(O)Cn1c2ccc(Cl)cc2c2cc(Cl)ccc21 (stereo not given) | 99.4% |
| Clc1ccc2c(N3CCCC3)ccnc2c1 | 68.8% |
| CSc1ccccc1C(=O)Nc1nc(-c2ccccn2)cs1 | 68.2% |
| FC(F)(F)c1cccc(Nc2nc3ccccc3nc2Nc2cccc(C(F)(F)F)c2)c1 | 97.6% |
| CCCCCn1c(=N)n(CC(O)COc2cccc(C)c2)c2ccccc21 (stereo not given) | 96.5% |
| Cc1ccc2c(C)nc(Nc3nc(C)cc(-c4ccccc4)n3)nc2c1 | 96.8% |
| OCCNc1nc(Nc2ccc(Cl)c(Cl)c2)nc2ccccc12 | 94% |
| Cc1cc(Nc2cccc(F)c2)nc(NCc2ccccc2)n1 | 98.3% |
| O=C(Nc1ccc(F)c(Cl)c1)Nc1ccc(Cl)c(Cl)c1 | 97.5% |
| Cc1cc(N(C)C)nc(Nc2ccc(NC(=O)Nc3ccccc3)cc2)n1 | 98.1% |
